Experimental data as given in US9517227B2, “Dihydropyrazoles” (Merck Patent GmbH, priority 2011, dated 2016).

Key:
[1] = target: T1, follicle-stimulating hormone (FSH) receptor (Rattus norvegicus, UniProt P20395); assay: Rat granulosa EC50 FSH (Assay B); format: cell-based; details: rat granulosa cells; for EC50: per Yanofsky et al. 2006
T1 construct: endogenous in cells; host or cells: rat granulosa cells
T1 sequence (P20395 18-692): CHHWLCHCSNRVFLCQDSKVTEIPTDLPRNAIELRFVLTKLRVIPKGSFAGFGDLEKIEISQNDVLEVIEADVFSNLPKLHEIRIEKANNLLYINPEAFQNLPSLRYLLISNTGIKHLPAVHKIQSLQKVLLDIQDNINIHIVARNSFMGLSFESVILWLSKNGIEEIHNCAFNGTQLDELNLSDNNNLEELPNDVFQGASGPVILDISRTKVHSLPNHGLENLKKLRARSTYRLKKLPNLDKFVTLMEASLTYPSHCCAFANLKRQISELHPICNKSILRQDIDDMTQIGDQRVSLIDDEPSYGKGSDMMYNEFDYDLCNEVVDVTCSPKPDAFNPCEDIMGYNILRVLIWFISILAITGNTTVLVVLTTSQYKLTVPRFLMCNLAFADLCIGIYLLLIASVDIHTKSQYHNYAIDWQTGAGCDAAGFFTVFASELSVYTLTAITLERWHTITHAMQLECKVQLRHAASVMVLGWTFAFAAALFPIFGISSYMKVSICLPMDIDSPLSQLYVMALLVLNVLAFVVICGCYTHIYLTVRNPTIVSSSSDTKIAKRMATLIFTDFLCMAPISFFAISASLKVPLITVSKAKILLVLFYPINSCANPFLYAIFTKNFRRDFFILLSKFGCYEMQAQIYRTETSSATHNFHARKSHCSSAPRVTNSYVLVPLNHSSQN
Protocol: Rat Granulosa EC50 FSH (Assay B)
The assay was performed pursuant to the teaching of Yanofsky et al. (2006) Allosteric activation of the follicle-stimulating hormone (FSH) receptor by selective, nonpeptide agonists. JBC 281(19): 13226-13233, which is incorporated by reference in the disclosure of the invention.

FSHR = target: T2, FSHR (Homo sapiens, UniProt P23945); assay: EC50 of cyclic AMP production in CHO FSHR cells + EC20 FSH (Assay A); format: cell-based; details: CHO-FSHR-LUC cells, 0.265 pM FSH (EC20), cAMP HTRF, 1 h
T2 construct: expressed in transfected cells; host or cells: CHO (Cho-FSHR-LUC-1-1-43)
T2 sequence (P23945 18-695): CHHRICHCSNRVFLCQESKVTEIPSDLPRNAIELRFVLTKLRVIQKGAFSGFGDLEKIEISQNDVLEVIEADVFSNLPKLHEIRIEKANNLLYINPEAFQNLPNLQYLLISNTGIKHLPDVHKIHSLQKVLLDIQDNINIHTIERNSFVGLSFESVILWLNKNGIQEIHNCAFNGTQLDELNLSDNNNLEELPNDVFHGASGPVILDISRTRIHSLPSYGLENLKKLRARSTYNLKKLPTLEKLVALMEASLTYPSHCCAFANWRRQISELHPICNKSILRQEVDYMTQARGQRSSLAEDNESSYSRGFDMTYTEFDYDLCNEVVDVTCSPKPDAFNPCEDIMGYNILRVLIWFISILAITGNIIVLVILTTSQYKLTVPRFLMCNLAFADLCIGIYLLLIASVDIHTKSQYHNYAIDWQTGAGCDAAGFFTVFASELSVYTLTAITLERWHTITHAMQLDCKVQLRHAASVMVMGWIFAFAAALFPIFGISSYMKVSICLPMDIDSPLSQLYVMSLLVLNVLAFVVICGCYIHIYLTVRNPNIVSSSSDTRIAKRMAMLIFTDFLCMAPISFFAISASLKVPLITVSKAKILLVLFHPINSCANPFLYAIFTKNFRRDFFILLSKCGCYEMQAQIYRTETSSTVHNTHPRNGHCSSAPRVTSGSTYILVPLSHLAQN
Protocol: EC50 of Cyclic AMP Production in CHO FSHR Cells+EC20 FSH (Assay A)
2500 Cho-FSHR-LUC-1-1-43 cells were plated per well in 5 μl of phenol red free DMEM/F12+1% FBS. Cells were plated in 384 well, solid white low volume plates (Greiner 784075) by Multidrop. Cells were assayed by adding 100 μl of 2×EC20 FSH/IBMX in DMEM/F12+0.1% BSA) by Multidrop to 2 μl of test compound stamped in 384 well plates (compounds are diluted 1:50). The final FSH concentration was 0.265 pM, and the final IBMX concentration was 200 μM. The compound plate map was as follows: Column 1: 2 μl of DMSO; Column 2: 2 μl of DMSO; Columns 3-12 and 13-24: 2 μl of test compound, diluted 1:4 in 100% DMSO, or 2 μl of FSH, diluted 1:4 in DMEM/F12+0.1% BSA. The starting concentration for FSH was 50 nM (final concentration was 0.5 nM). Furthermore, Column 23 contained 2 μl of EC100 FSH reference (100×) (diluted in DMEM/F12+0.1% BSA) at a final concentration of 0.5 nM, and Column 24 contained 2 μl of 1 mM AS707664/2 reference compound 2. 5 μl of compound+EC20 FSH mixture were transferred to cell plates (1:2 dilution into 5 μl of cell media). The plates were incubated at 37° C. for 1 h. 10 μl of mixed HTRF (CisBio #62AM4PEC) reagents were added per well and incubated at room temperature for 1 h. The plates were read on Envision using the cAMP HTRF—low volume 384 well protocol. The readout was the calculated fluorescence ratio (665 nm/620 nm).

Which EC50 [1] does the source give for `COc1ccc(C2=NN(C(=O)c3cccc(C)c3)CC2)cc1OC` [Compound 65] here?
Its EC50 is 5.09 µM.

And the EC50 (FSHR)?
Its EC50 is 21 µM.

For `CCc1cccc(C(=O)N2CCC(c3ccc(OC)c(OC)c3)=N2)c1` [Compound 93], which EC50 [1] is on record?
Its EC50 is 0.726 µM.

What about the EC50 (FSHR) of the same molecule?
The EC50 was 27 µM.

Which results are given for `COc1ccc(C2=NN(C(=O)c3cccc(F)c3F)CC2)cc1OC` [Compound 77]?
EC50 [1]: 0.729 µM; EC50 (FSHR): 8.61 µM

With `COc1ccc(C2=NN(C(=O)c3cccc(Cl)c3)C(C)(C)C2)cc1OC` [Compound 251, (3-Chloro-phenyl)-[3-(3,4-dimethoxy-phenyl)-5,5-dimethyl-4,5-dihydro-pyrazol-1-yl]-methanone] as the molecule, how does the EC50 (FSHR) read?
Its EC50 is 27.1 µM.

What does the source list for `COc1ccc(C2=NN(C(=O)c3cccc(C#N)c3)C(C)(C)C2)cc1OC` [Compound 132, 3-[3-(3,4-Dimethoxy-phenyl)-5,5-dimethyl-4,5-dihydro-pyrazole-1-carbonyl]-benzonitrile]?
EC50 [1]: 0.025 µM; EC50 (FSHR): 41.5 µM

`COc1ccc(C2=NN(C(=O)Cc3cccc(F)c3)CC2)cc1OC` [Compound 241, 1-[3-(3,4-Dimethoxy-phenyl)-4,5-dihydro-pyrazol-1-yl]-2-(3-fluoro-phenyl)-ethanone] was tested. Which EC50 [1] did it give?
The EC50 was 0.342 µM.

What about the EC50 (FSHR) of the same molecule?
The EC50 was 31 µM.

How did the EC50 (FSHR) turn out when `CSc1ccc(C2=NN(C(=O)c3cccc(F)c3)CC2)cc1` [Compound 204, (3-Fluoro-phenyl)-[3-(4-methylsulfanyl-phenyl)-4,5-dihydro-pyrazol-1-yl]methanone] was run?
Its EC50 is 8.25 µM.

How did the EC50 (FSHR) turn out when `COc1ccc(C2=NN(C(=O)C(OC)c3ccc(Cl)cc3)CC2)cc1OC` (stereo not drawn) [Compound 274] was run?
Its EC50 is 25 µM.

Which EC50 [1] does the source give for `COc1ccc(C2=NN(C(=O)c3ccc(F)c(C(F)(F)F)c3)C(C)(C)C2)cc1OC` [Compound 236, [3-(3,4-Dimethoxy-phenyl)-5,5-dimethyl-4,5-dihydro-pyrazol-1-yl]-(4-fluoro-3-trifluoromethyl-phenyl)-methanone] here?
Its EC50 is 1.73 µM.

What about the EC50 (FSHR) of the same molecule?
Its EC50 is 25.3 µM.

With `COc1ccc(C2=NN(C(=O)c3cccc(Br)c3)C(C)(C)C2)cc1OC` [Compound 233, (3-Bromo-phenyl)-[3-(3,4-dimethoxy-phenyl)-5,5-dimethyl-4,5-dihydro-pyrazol-1-yl]-methanone] as the molecule, how does the EC50 [1] read?
The EC50 was 0.216 µM.

And the EC50 (FSHR)?
The EC50 was 27.8 µM.

For `COc1ccc(-c2ccn(C(=O)c3ccc4c(c3)OCO4)n2)cc1OC` [Compound 148], which EC50 [1] is on record?
Its EC50 is 3.4 µM.

And the EC50 (FSHR)?
The EC50 was 2.88 µM.

With `CSc1ccc(C2=NN(C(=O)c3ccc4c(c3)OCO4)CC2)cc1` [Compound 205, Benzo[1,3]dioxol-5-yl-[3-(4-methylsulfanyl-phenyl)-4,5-dihydro-pyrazol-1-yl]-methanone] as the molecule, how does the EC50 (FSHR) read?
Its EC50 is 30 µM.

Which EC50 [1] does the source give for `COc1ccc(C2=NN(C(=O)c3cccc(Cl)c3)CC2)cc1OC` [Compound 62] here?
Its EC50 is 0.0981 µM.

And the EC50 (FSHR)?
The EC50 was 6.49 µM.

`COc1ccc(C2=NN(C(=O)c3ccccc3F)C(C)(C)C2)cc1OC` [Compound 228, [3-(3,4-Dimethoxy-phenyl)-5,5-dimethyl-4,5-dihydro-pyrazol-1-yl]-(2-fluoro-phenyl)-methanone] was tested. Which EC50 [1] did it give?
The EC50 was 0.134 µM.

With `COc1ccc(C2=NN(C(=O)Cc3cccc(F)c3)C(C)(C)C2)cc1OC` [Compound 255, 1-[3-(3,4-Dimethoxy-phenyl)-5,5-dimethyl-4,5-dihydro-pyrazol-1-yl]-2-(3-fluoro-phenyl)-ethanone] as the molecule, how does the EC50 (FSHR) read?
Its EC50 is 35 µM.

With `O=C(c1cccc(F)c1)N1CCC(c2ccc3c(c2)OCCO3)=N1` [Compound 189] as the molecule, how does the EC50 (FSHR) read?
The EC50 was 28 µM.

Which results are given for `COc1ccc(C2=NN(C(=O)c3cc(F)c(F)c(F)c3F)CC2)cc1OC` [Compound 80]?
EC50 [1]: 1.19 µM; EC50 (FSHR): 28 µM

Which EC50 (FSHR) does the source give for `O=C(c1cccc(F)c1)N1CCC(c2ccc(C(F)(F)F)cc2)=N1` [Compound 207] here?
Its EC50 is 44.5 µM.

For `Cn1ccc2cc(C3=NN(C(=O)c4cccc(F)c4)CC3)ccc21` [Compound 185], which EC50 (FSHR) is on record?
The EC50 was 4.5 µM.

For `COc1ccc(C2=NN(C(=O)c3ccc(Br)cc3)C(C)(C)C2)cc1OC` [Compound 257, (4-Bromo-phenyl)-[3-(3,4-dimethoxy-phenyl)-5,5-dimethyl-4,5-dihydro-pyrazol-1-yl]-methanone], which EC50 (FSHR) is on record?
The EC50 was 33.2 µM.

Which EC50 (FSHR) does the source give for `COc1ccc(C2=NN(C(=O)c3ccc(Cl)cc3)C(C)(C)C2)cc1OC` [Compound 247, (4-Chloro-phenyl)-[3-(3,4-dimethoxy-phenyl)-5,5-dimethyl-4,5-dihydro-pyrazol-1-yl]-methanone] here?
Its EC50 is 35.2 µM.

`COc1ccc(C2=NN(C(=O)[C@H](OC)c3ccccc3)CC2)cc1OC` [Compound 290] was tested. Which EC50 [1] did it give?
The EC50 was 5.4 µM.

For `CCc1ccc(C(=O)N2N=C(c3ccc(OC)c(OC)c3)CC2(C)C)cc1` [Compound 259, [3-(3,4-Dimethoxy-phenyl)-5,5-dimethyl-4,5-dihydro-pyrazol-1-yl]-(4-ethyl-phenyl)-methanone], which EC50 (FSHR) is on record?
Its EC50 is 30 µM.

Which EC50 (FSHR) does the source give for `COc1ccc(C(OC)C(=O)N2CCC(c3ccc(OC)c(OC)c3)=N2)cc1` (stereo not drawn) [Compound 275] here?
Its EC50 is 24 µM.

Which EC50 (FSHR) does the source give for `COc1ccc(C2=NN(C(=O)c3cccc(F)c3)CC2(C)C)cc1OC` [Compound 149, [3-(3,4-Dimethoxy-phenyl)-4,4-dimethyl-4,5-dihydro-pyrazol-1-yl]-(3-fluoro-phenyl)-methanone] here?
The EC50 was 0.382 µM.

Which EC50 (FSHR) does the source give for `CC(C)(C)Oc1ccc(C2=NN(C(=O)c3cccc(F)c3)CC2)cc1` [Compound 210] here?
The EC50 was 7.39 µM.

How did the EC50 (FSHR) turn out when `COc1ccc(C2=NN(C(=O)c3cccc(F)c3)CC2)c(OC)c1OC` [Compound 223] was run?
Its EC50 is 31.2 µM.

`O=C(c1ccc2c(c1)OCO2)N1CCC(c2ccc(OC(F)(F)F)cc2)=N1` [Compound 199, Benzo[1,3]dioxol-5-yl-[3-(4-trifluoromethoxy-phenyl)-4,5-dihydro-pyrazol-1-yl]methanone] was tested. Which EC50 (FSHR) did it give?
The EC50 was 34.3 µM.

With `COc1ccc(C2=NN(C(=O)C(OC)c3ccccc3)CC2)cc1OC` (stereo not drawn) [Compound 291] as the molecule, how does the “Assay B: value given in % (rat granulosa)” value ([1]; meaning of % not stated) read?
The value was 144.00%.

`COc1ccc(C2=NN(C(=O)c3cccc(F)c3)CC2)cc1S(=O)(=O)NCc1ccccc1` [Compound 214] was tested. Which EC50 (FSHR) did it give?
The EC50 was 1.1 µM.

For `COc1ccc(C2=NN(C(=O)c3cccc(Oc4ccccc4)c3)C(C)(C)C2)cc1OC` [Compound 229, [3-(3,4-Dimethoxy-phenyl)-5,5-dimethyl-4,5-dihydro-pyrazol-1-yl]-(3-phenoxy-phenyl)-methanone], which EC50 [1] is on record?
Its EC50 is 0.032 µM.

`Cc1cccc(C2=NN(C(=O)c3cccc(F)c3)CC2)c1` [Compound 179, (3-Fluoro-phenyl)-(3-m-tolyl-4,5-dihydro-pyrazol-1-yl)-methanone] was tested. Which EC50 (FSHR) did it give?
The EC50 was 34 µM.

How did the EC50 (FSHR) turn out when `COc1ccc(C2=NN(C(=O)C(OC)c3ccc(C)cc3)CC2)cc1OC` (stereo not drawn) [Compound 282] was run?
The EC50 was 27 µM.

`COc1ccc(C2=NN(C(=O)C(OC)c3cccc(C(F)(F)F)c3)CC2)cc1OC` (stereo not drawn) [Compound 277] was tested. Which EC50 (FSHR) did it give?
The EC50 was 2 µM.

How did the EC50 (FSHR) turn out when `COc1ccc(C2=NN(C(=O)c3ccc(C(F)(F)F)c(F)c3)CC2)cc1OC` [Compound 75] was run?
The EC50 was 5.7 µM.
